Measurements as given in US20230312587A1, “PTERIDINONE COMPOUNDS AND USES THEREOF” (Vertex Pharmaceutical Incorporated, priority 2018, published 2023).
Read-outs that look alike come from different tables or passages of the source.

Columns and labels:
Plk1 = Plk1 (Homo sapiens (Human), UniProt P53350); assay: PLK1 inhibition assay (radioactive-phosphate incorporation); type: biochemical; conditions: Ki(app), read-out: PLK1 - 33P.ENZ - CB 10 Ki
In short: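 Radioactive-phosphate incorporation with 15 nM Plk1 and 9 µM Sam68 substrate, 20 µM [γ-33P]ATP, in 25 mM HEPES pH 7.5, 10 mM MgCl2, 25 mM NaCl, 2 mM DTT, 1.5% DMSO, room temperature, 45 min. Stopped with TCA/cold ATP, filtered, scintillation counted. Ki(app) from non-linear regression of background-corrected initial rates.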

HepG2 WFS1 KO = assay: In vitro cell viability (CellTiter-Glo), HepG2 WFS1 KO; type: cell-based; conditions: for IC50: 96 hours
Source text: A double cleavage strategy was employed to remove large fragments from the WFS1 locus. Suitable target sites in WFS1 exon 8 were first selected using CRISPR design software to rank suitable target sites and computationally predict off-target sites for each intended target. Six top guide RNA sequences are identified and screened for activity using the Surveyor Mutation Detection Kit (Integrated DNA Technologies). Then, the best 2 guide RNAs were cloned into GeneArt OFP CRISPR nuclease vectors (Thermofisher, Cat #A21174) separately and co-transfected into HepG2 cells using nucleofection (4D Nucleofector X, Lonza). Cells were sorted by FACS 48 hrs later to enrich for the OFP positive cell population. The OFP positive cell population were plated into 96-well plates at 0.5-5 cells/well to isolate clonal cell lines. After allowing cells to expand for 2-3 weeks, plates were inspected for presence of colonies. When colonies became more than 70% confluent, they were dissociated with trypsin and were further expanded. Cell clones with homozygous double cleavage of WFS1 exon 8 were detected with PCR and confirmed with DNA sequencing.
HEK293 cells containing empty pCLPCx vector (HEK293 empty), HEK293 cells stably over-expression WFS1 (HEK293 WFS1), HepG2, and HepG2 cells where WFS1 was depleted via CRISPR/Cas9 (HepG2 WFS1 KO) cells were plated into 96-well black plates (Corning, product #3904) in 100 microliters of complete DMEM cell culture media [DMEM (Life Technologies, product #11960-051) media supplemented with 10% FBS (Hyclone, catalog #SH30071.03), antimycotic/antibiotic (Life Technologies, product #15240-062), and Glutamax (Life Technologies, product #35050-061)] at 1,000 (HEK293) or 5,000 (HepG2) cells per well. Cells were allowed to attach and grow overnight, after which compounds are added at various concentrations. Cell viability was assessed 96 hrs after compound addition with CellTiter-Glo reagent (Promega, catalog #G7570) according to manufacturer's protocol and measurement on a Pherastar luminescence plate reader (BMG Labtech).
To determine the effect of WFS1 depletion on compound mediated inhibition of cell viability, parental HepG2 cells and HepG2 cells where WFS1 was deleted by CRISPR/Cas9 were exposed to increasing concentrations of either Compound 136 or Compound 253 for 96 hours after which time viability was determined using Cell Titer Glo reagent (Promega). […] The IC50s for the viability of both the HepG2 parental and WFS1 knockout cells are summarized in Table 47: A<0.5 μM; 0.5 μM≤<2.0 μM; 2.0 μM≤C<10.0 μM; D≥[…].

[1] = test system: non-small cell lung cancer (NSCLC) adenocarcinoma line D33966; assay: In vivo efficacy, NSCLC patient derived xenograft OD33966; design: species or system nu/nu mice; conditions: NSCLC PDX OD33966, oral, 100 mpk qd; for inhibition in vivo at 100 mg/kg: Mus musculus, read-out: % TGI
Description: Female immune deficient mice (Charles River, 4-6 wks age) were anesthetized with Ketamine-Xylazine (140 mg/kg-14 mg/kg ip) and shaved. Puralube eye ointment was applied to the eyes to prevent desiccation of the corneas. Betadine and 70% ethanol was applied to the shaved location to sterilize the skin at the location of the incision. The animals were placed in a biosafety cabinet for the duration of the surgery. Using scissors, an 8 to 10 mm incision was made in the lateral flank of the skin. A tumor fragment weighing between 50 and 150 mg was placed under the skin at the incision site using forceps, and staples were used to close the incision. The staples were removed 5 to 7 days after surgery. Starting approximately two weeks after implantation, animals were weighed, and tumors were measured using caliper twice weekly. Tumor volume was calculated using the formula: volume=length×width^2×0.52.
Compound administration began when xenografts reached approximately 100-300 mm3 and continued until control xenografts reached […] of the animal's body weight. Test compounds were administered orally by gastric gavage. Percent tumor growth inhibition (TG) was calculated on the indicated treatment day. Percent TGI is defined as: [1−(del T/del C)]×100%, where del T is the final minus initial average volumes of the treated group, and del C is the final minus initial average volumes of the control group. […] The tested compounds were administered orally. Vehicle control consisted of either 0.5% methylcellulose/0.1% sodium lauryl sulfate or 20% captisol. Tumor volumes were determined by caliper measurement twice a week.

[2] = Homo sapiens, HepG2 WFS1 knockout, read-out: HepG2 WFS1 KO viability

Plk1, sequence (P53350 whole entry, species assumed): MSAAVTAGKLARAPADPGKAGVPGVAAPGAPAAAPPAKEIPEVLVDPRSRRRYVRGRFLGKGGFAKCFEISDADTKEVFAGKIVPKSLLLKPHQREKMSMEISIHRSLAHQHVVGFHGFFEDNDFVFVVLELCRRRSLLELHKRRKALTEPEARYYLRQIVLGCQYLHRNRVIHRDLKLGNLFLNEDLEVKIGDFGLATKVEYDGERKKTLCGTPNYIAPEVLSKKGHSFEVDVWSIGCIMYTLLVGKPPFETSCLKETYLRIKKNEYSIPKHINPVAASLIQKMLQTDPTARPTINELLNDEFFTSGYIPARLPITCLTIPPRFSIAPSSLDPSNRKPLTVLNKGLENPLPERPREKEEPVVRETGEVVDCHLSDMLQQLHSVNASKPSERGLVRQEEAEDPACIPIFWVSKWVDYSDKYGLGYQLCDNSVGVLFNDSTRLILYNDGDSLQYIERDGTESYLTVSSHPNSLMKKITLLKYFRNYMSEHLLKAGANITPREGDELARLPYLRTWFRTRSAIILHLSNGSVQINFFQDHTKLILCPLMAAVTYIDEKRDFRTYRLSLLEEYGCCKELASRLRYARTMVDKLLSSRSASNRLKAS

| Structure (SMILES) | Ki (Plk1) | IC50 (HepG2 WFS1 KO; [2]) | further results |
| --- | --- | --- | --- |
| Cc1nc(NCc2cnn(CC3CCC3)c2)nc2c1N(C)C(=O)[C@H](C)N2C [Compound 7, (7S)-2-(((1-(cyclobutylmethyl)-1H-pyrazol-4-yl)methyl)amino)-4,5,7,8-tetramethyl-7,8-dihydropteridin-6(5H)-one] | > 4 µM | ≥ 10 µM |  |
| Cc1nc(NCc2cnn(Cc3ccc(C(F)(F)F)nc3)c2)nc2c1NC(=O)[C@H](C)N2C [Compound 136, (7S)-4,7,8-trimethyl-2-(((1-((6-(trifluoromethyl)pyridin-3-yl)methyl)-111-pyrazol-4-yl)methyl)amino)-7,8-dihydropteridin-6(5H)-one] | > 4 µM |  | % TGI ([1]; treatment day 14): 106.65%; IC50 (HepG2 WFS1 KO; HepG2 WFS1 knockout, read-out: HepG2 WFS1 KO viability): ≥ 10 µM; IC50 (HepG2 WFS1 KO; cell viability, HepG2 WFS1 KO, Cell Titer Glo, read-out: IC50): > 27 µM; IC50 (HepG2 WFS1 KO; cell viability, HepG2 WFS1 KO, read-out: IC50 class): ≥ 10 µM; shift in IC50 on depletion of WFS1 from HepG2 cells (HepG2 WFS1 KO; cell viability, WFS1 KO vs parental HepG2, 96 hours): greater than 100 fold |
| CC[C@H]1C(=O)Nc2cnc(NCc3cnn(Cc4ccc(F)cc4)c3)nc2N1C [Compound 9, (7S)-7-ethyl-2-(((1-(4-fluorobenzyl)-1H-pyrazol-4-yl)methyl)amino)-8-methyl-7,8-dihydropteridin-6(5H)-one] | > 4 µM | ≥ 10 µM |  |
| Cc1cc(F)ncc1Cn1cc(CNc2nc(C)c3c(n2)N(C)[C@@H](C)C(=O)N3)cn1 [Compound 94, (7S)-2-(((1-((6-fluoro-4-methylpyridin-3-yl)methyl)-1H-pyrazol-4-yl)methyl)amino)-4,7,8-trimethyl-7,8-dihydropteridin-6(5H)-one] |  |  | inhibition in vivo at 100 mg/kg ([1]; 336 h, treatment day 14): 94.5% |
| COc1c(F)cc(Cn2cc(CNc3nc(C)c4c(n3)N(C)[C@@H](C)C(=O)N4)cn2)cc1F [Compound 46, (7S)-2-(((1-(3,5-difluoro-4-methoxybenzyl)-1H-pyrazol-4-yl)methyl)amino)-4,7,8-trimethyl-7,8-dihydropteridin-6(5H)-one] | > 4 µM |  | inhibition in vivo at 100 mg/kg ([1]; 336 h, treatment day 14): 93.3% |
| Cc1nc(NCc2cnn(CCc3ccc(F)cc3)c2)nc2c1NC(=O)[C@H](C)N2C [Compound 6, (7S)-2-(((1-(4-fluorophenethyl)-1H-pyrazol-4-yl)methyl)amino)-4,7,8-trimethyl-7,8-dihydropteridin-6(5H)-one] | > 4 µM | ≥ 10 µM |  |
| CC(=O)N(Cc1cnn(Cc2ccc(C(F)(F)F)nc2)c1)c1nc(C)c2c(n1)N(C)[C@@H](C)C(=O)N2 [Compound 405, (7S)-N-((1-((6-(trifluoromethyl)pyridin-3-yl)methyl)-1H-pyrazol-4-yl)methyl)-N-(4,7,8-trimethyl-6-oxo-5,6,7,8-tetrahydropteridin-2-yl)acetamide] |  |  | inhibition in vivo at 100 mg/kg ([1]; 288 h, treatment day 12): 91% |
| COc1cc(F)ccc1Cn1cc(CNc2nc(C)c3c(n2)N(C)[C@@H](C)C(=O)N3)cn1 [Compound 83, (7S)-2-(((1-(4-fluoro-2-methoxybenzyl)-1H-pyrazol-4-yl)methyl)amino)-4,7,8-trimethyl-7,8-dihydropteridin-6(5H)-one] |  |  | inhibition in vivo at 100 mg/kg ([1]; 336 h, treatment day 14): 97.2% |
| Cc1nc(N(C)Cc2cnn(Cc3ccc(C(F)(F)F)nc3)c2)nc2c1NC(=O)[C@H](C)N2C [Compound 403, (7S)-4,7,8-trimethyl-2-(methyl((1-((6-(trifluoromethyl)pyridin-3-yl)methyl)-1H-pyrazol-4-yl)methyl)amino)-7,8-dihydropteridin-6(5H)-one] |  |  | inhibition in vivo at 100 mg/kg ([1]; 288 h, treatment day 12): 103% |
| Cc1nc(N[C@@H]2CC[C@@H](Oc3cc(F)c(F)c(F)c3)C2)nc2c1N(C)C(=O)[C@H](C)N2C [Compound 272, (S)-4,5,7,8-tetramethyl-2-(((1R,3R)-3-(3,4,5-trifluorophenoxy)cyclopentyl)amino)-7,8-dihydropteridin-6(5H)-one] |  |  | inhibition in vivo at 100 mg/kg ([1]; 336 h, treatment day 14): 77.9% |
| Cc1nc(NCc2cnn(Cc3ccc(F)nc3)c2)nc2c1NC(=O)[C@H](C)N2C [Compound 77] |  |  | inhibition in vivo at 100 mg/kg ([1]; 336 h, treatment day 14): 98.5% |
| Cc1nc(NCc2cnn(CCc3ccc(F)cc3)c2)nc2c1N(C)C(=O)[C@H](C)N2C [Compound 8, (7S)-2-(((1-(4-fluorophenethyl)-1H-pyrazol-4-yl)methyl)amino)-4,5,7,8-tetramethyl-7,8-dihydropteridin-6(5H)-one] | > 4 µM | ≥ 10 µM |  |

More lines, main results first:

| Ki (Plk1) | IC50 (HepG2 WFS1 KO; [2]) | Structure (SMILES) | further results |
| --- | --- | --- | --- |
| > 4 µM | ≥ 10 µM | Cc1nc(N[C@H]2C[C@@H](Oc3cc(F)c(F)c(F)c3)C2)nc2c1NC(=O)[C@H](C)N2C [Compound 247, (7S)-4,7,8-trimethyl-2-((cis-3-(3,4,5-trifluorophenoxy)cyclobutyl)amino)-7,8-dihydropteridin-6(5H)-one] |  |
| > 4 µM |  | Cc1nc(N[C@H]2C[C@H](Oc3cc(F)c(F)c(F)c3)C2)nc2c1NC(=O)[C@H](C)N2C [Compound 246, (7S)-4,7,8-trimethyl-2-((trans-3-(3,4,5-trifluorophenoxy)cyclobutyl)amino)-7,8-dihydropteridin-6(5H)-one] | inhibition in vivo at 100 mg/kg ([1]; 264 h, treatment day 11): 82.6% |
|  | ≥ 10 µM | Cc1ncc(Cn2cc(CNc3nc(C)c4c(n3)N(C)[C@@H](C(C)C)C(=O)N4)cn2)cc1F [Compound 425, (7S)-2-(((1-((5-fluoro-6-methylpyridin-3-yl)methyl)-1H-pyrazol-4-yl)methyl)amino)-7-isopropyl-4,8-dimethyl-7,8-dihydropteridin-6(5H)-one] |  |
|  | ≥ 10 µM | Cc1nc(NCc2cnn(Cc3ccc(C(F)(F)F)nc3Cl)c2)nc2c1NC(=O)[C@H](C)N2C [Compound 418, (7S)-2-(((1-((2-chloro-6-(trifluoromethyl)pyridin-3-yl)methyl)-1H-pyrazol-4-yl)methyl)amino)-4,7,8-trimethyl-7,8-dihydropteridin-6(5H)-one] |  |
|  | ≥ 10 µM | Cc1nc(NCc2cnn(Cc3ccc(C(F)(F)F)nc3C(C)(C)O)c2)nc2c1NC(=O)[C@H](C)N2C [Compound 416, (7S)-2-(((1-((2-(2-hydroxypropan-2-yl)-6-(trifluoromethyl)pyridin-3-yl)methyl)-1H-pyrazol-4-yl)methyl)amino)-4,7,8-trimethyl-7,8-dihydropteridin-6(5H)-one] |  |
|  | ≥ 10 µM | Cc1nc(NCc2cn(Cc3ccc(C(F)(F)F)nc3)nc2Br)nc2c1NC(=O)[C@H](C)N2C [Compound 412, (S)-2-(((3-bromo-1-((6-(trifluoromethyl)pyridin-3-yl)methyl)-1H-pyrazol-4-yl)methyl)amino)-4,7,8-trimethyl-7,8-dihydropteridin-6(5H)-one] |  |
